Experimental data: PMC11554538, “Region-independent active CNS net uptake of marketed H^+/OC antiporter system substrates” (Frontiers in Cellular Neuroscience, 2024)
Where a name gives a salt, the structure may show the parent alone. Read-outs that look alike come from different tables or passages of the source.

Assays:
in vitro [1] = conditions: rat; for fraction unbound at 6 h: pH 7.4, Unbound fraction in plasma, fu,plasma
Description: Equilibrium dialysis was employed to determine the fraction of unbound drug in plasma (fu,plasma), homogenates of whole-brain (fu,brain) and the CNS regions of interest (fu,ROI) including the frontal cortex, parietal cortex, cerebellum, striatum, hippocampus, and spinal cord. […] Briefly, a Teflon 96-well plate (model HTD96b, HTDialysis LLC, Gales Ferry, CT, USA) with a cellulose membrane with a 12–14 kDa molecular weight cutoff was used. The cellulose membrane was treated according to the recommendations from the manufacturer before starting the experiment (HTDialysis LLC, Gales Ferry, CT, USA). Fresh plasma (n=3 rats per drug) was obtained on the day of the experiment and the pH of the plasma was adjusted to 7.40 using H3PO4. […] Whole brain and CNS regions of interest (n = 3–4 rats per drug) were homogenized in 1:9 (w:v) PBS pH 7.40. Diluted brain samples were individually spiked to a final concentration of 1,000 nM. Hundred μL of undiluted spiked plasma samples or homogenates were dialyzed against equal volumes of PBS, pH 7.40, for 6 h at 37°C at 200 rpm in an incubator with orbital shaking (MaxQ4450 Thermo Fisher Scientific, NinoLab, Sweden). One to three technical replicates were tested per biological replicate. Drug recovery and thermostability in plasma and brain were analyzed in each experiment by sampling spiked samples before and after the 6-h incubation. […] At the end of the 6-h incubation, 50 μL PBS sample from the receiver chambers was transferred into a Corning® 0.33 mL round-bottom polypropylene 96-well plate (VWR, Stockholm, Sweden) containing 50 μL blank plasma or 1:9 (w:v) brain homogenate using a multichannel pipette. Immediately after this step, 50 μL spiked plasma or brain homogenate was taken from the donor chambers and added to the same 96-well plate containing 50 μL of blank PBS. The 96-well plate was sealed with aluminum film, vortexed and stored at −20°C pending bioanalysis. The fraction of unbound drug in plasma was assessed as a ratio between buffer and plasma concentrations. The unbound fraction of drug in the diluted (D) CNS tissue homogenate (fu,hD) was calculated as: […]

in vitro [2] = conditions: rat
[3] = rat, in vivo; for Cu,brainISF,ss (unbound steady-state concentration in brain interstitial fluid): male, Sprague-Dawley
[4] = cited from earlier work
[5] = male, Sprague-Dawley, rat, in vivo
in vitro [6] = conditions: rat; remark: listed apart in the source
[7] = rat, 5 h
in vivo [8] = conditions: male, Sprague-Dawley, rat, iv
in vivo [9] = conditions: male, Sprague-Dawley, rat
[10] = brain homogenate, pH 7.4, Unbound fraction fu,ROI (fu,brain)
[11] = tissue homogenate, pH 7.4, Unbound fraction fu,ROI
[12] = cerebral microdialysis, ref Kitamura et al., 2016

Which results are given for CC(NC(C)(C)C)C(=O)c1cccc(Cl)c1 (centres unmarked) [Bupropion, bupropion hydrochloride]?
Unbound fraction in plasma, fu,plasma (in vitro [1]; 6 h, pH 7.4): 0.327 ± 0.068; fraction unbound at 6 h (in vitro [1]; plasma): 0.33; Kp uu at 5 h (in vitro [2]; Kp,uu,cell,obs (observed unbound brain intracellular-to-extracellular concentration ratio)): 3.12; Cu,brainISF,ss (unbound steady-state concentration in brain interstitial fluid) ([3]; 4 h): 9.3±4.6 ng/g brain; Kp,uu,ROI (unbound ROI-to-plasma concentration ratio) [3]: exceeding unity; Reported Kp,uu ([4]; cerebral microdialysis, ref Cremers et al., 2016): 1.9 (Cremers et al., [2016]); Ctot,CSF,ss (total CSF concentration at steady state, assumed equal to unbound) ([5]; 4 h): 21.9±5.6; fraction unbound at 6 h, 1000 nM (in vitro [6]; [10]): 0.209 ± 0.031; fraction unbound at 6 h, 1000 nM (in vitro [6]; [11]): 0.142 ± 0.004; Kp,uu,cell,obs (observed unbound brain intracellular-to-extracellular concentration ratio) [7]: 3.1

Which fraction unbound at 6 h (in vitro [1]; plasma) does the source give for CC12CC3CC(C)(C1)CC(N)(C3)C2 [Memantine, memantine hydrochloride] here?
Its fraction unbound at 6 h is 0.543 ± 0.037.

What about the Kp uu at 5 h (in vitro [2]) of the same compound?
Its Kp uu at 5 h is 2.11.

What about the “Cu,brainISF,ss (unbound steady-state concentration in brain interstitial fluid)” value ([3]; 4 h) of the same compound?
Its value is 194.3±38.5 ng/g brain.

And the “Kp,uu,ROI (unbound ROI-to-plasma concentration ratio)” value [3]?
The value was “exceeding unity”.

What about the “Reported Kp,uu” value ([4]; cerebral microdialysis, ref Kawase et al., 2021a) of the same compound?
Its value is 2.03.

And the “Reported Kp,uu” value [4, 12]?
Its value is 1.80.

What about the Kp at 4 h (in vivo [8]) of the same compound?
Its Kp at 4 h is 41.7.

Which results are given for COc1ccc(CN(CCN(C)C)c2ccccn2)cc1 [Pyrilamine, Pyrilamine maleate]?
fraction unbound at 6 h (in vitro [1]; plasma): 0.386 ± 0.093; Kp uu at 5 h (in vitro [2]): 1.88; Cu,brainISF,ss (unbound steady-state concentration in brain interstitial fluid) ([3]; 4 h): 21.6±2.0 ng/g brain; Kp,uu,ROI (unbound ROI-to-plasma concentration ratio) [3]: exceeding unity; Reported Kp,uu [4, 12]: 2.50 (Kitamura et al., [2016]); Ctot,CSF,ss (total CSF concentration at steady state, assumed equal to unbound) ([5]; 4 h): 7.7±1.9; Difference between mean Kp,uu,ROI in the whole brain and Kp,uu,CSF ([5]; 4 h): 2.8 fold; fraction unbound at 6 h, 1000 nM (in vitro [6]; [10]): 0.093 ± 0.012; fraction unbound at 6 h, 1000 nM (in vitro [6]; [11]): 0.103 ± 0.013

What does the source list for COc1cccc(C2(O)CCCCC2CN(C)C)c1 (centres unmarked) [Tramadol, tramadol hydrochloride]?
fraction unbound at 6 h (in vitro [1]; undiluted rat plasma pH 7.40, 500 nM (memantine 500 ng/mL), 6 h, 37°C, mean ± SD): 0.827 ± 0.027; Kp uu (in vitro [2]): 2.01; Cu,brainISF,ss (unbound steady-state concentration in brain interstitial fluid) [3]: 95.0±9.4; Kp,uu,ROI (unbound ROI-to-plasma concentration ratio) [3]: exceeding unity; Reported Kp,uu ([4]; in vivo): 2.90 (Kitamura et al., [2016]) 2.30 (Kitamura et al., [2014]); Kp uu at 4 h (in vivo [9]): 1.49 ± 0.49; Ctot,CSF,ss (total CSF concentration at steady state, assumed equal to unbound) [5]: 47.7±8.2; fraction unbound (in vitro [6]; [10]): 0.496 ± 0.128; fraction unbound (in vitro [6]; [11]): 0.462 ± 0.064
